Reference: US4243672A, “5-Substituted 2-pyrroleglyoxylic acids, 5-substituted 2-pyrrolylglycines and derivatives thereof” (Pfizer Inc., priority 1978, dated 1981)
Where a name gives a salt, the structure may show the parent alone.

Assays:
[1] = tested on: diaphragm tissue from fat-fed rats; assay: Pyruvate oxidation by diaphragm tissue from fat-fed rats (14C-pyruvate into CO2) in vitro; format: cell-based; conditions: Rattus norvegicus, stimulation of pyruvate oxidation, concentration 0.5 mmolar
Method: Diaphragm tissue is obtained from rats fed on a high fat diet similar to 'Diet B' described by Zaragoza and Felber [Horm, Metab. Res., 2, 323 (1970)]. Pyruvate oxidation by such tissue is assessed by measurement of the rate of incorporation of carbon-14 from carbon-14-labelled pyruvate into carbon dioxide in vitro, as described by Bringolf [Eur. J. Biochem., 26, 360 (1972)]. The rate of pyruvate oxidation is depressed by 50-75% compared with that by diaphragm tissue from rats fed on a normal diet. When the compounds of the invention are added to the medium, they are found to stimulate pyruvate oxidation by diaphragm tissue from fat-fed rats in a dose dependent manner.

[2] = tested on: pyruvate dehydrogenase enzyme (PDH); assay: Proportion of active pyruvate dehydrogenase (PDHa/PDHt) in hearts of fat-fed rats after dosing; format: in vivo, rat; conditions: heart, after 1.5 hours
Method: Rats fed on a high fat diet as in the previous test, are treated either with placebo or with the compound of formula (I) or (II) by subcutaneous or intravenous injection or by oral administration. After 1.5 hours the rat hearts are removed and homogenized under conditions which minimize changes in the proportion of the pyruvate dehydrogenase enzyme (PDH) which is present in the active form, as described by Whitehouse and Randle [Biochem. J., 134, 651 (1973)]. The total amount of enzyme present (PDHt) and the amount which is present in the active form (PDHa) are assessed by a method similar to that described by Taylor et al. [J. Biol. Chem., 248, 73 (1973)]. The fat-feeding process is found to depress the ratio PDHa/PDHt from a normal value of about 0.7 to a value in the range from 0.05 to 0.2. Treatment of fat-fed rats with the compounds of formula (I) or (II) either parenterally or orally, increases this ratio in a dose dependent manner.
The increase in the PDHa/PDHt ratio affected by various of the compounds for the Examples at the dose level indicated is shown in the following Table: The compounds were administered by subcutaneous injection except where indicated by (0) where the compounds were administered orally.

heart = assay: Myocardial blood flow and metabolism in fasted, closed-chest, anaesthetized, electrically paced beagle dogs; format: in vivo; conditions: 0.02 to 0.1 millimole/kg. intravenously
Method: The ability of compounds of formula (I) or (II) to reduce oxygen demand and affect the relative utilization of carbohydrate and lipid metabolites in the heart has been assessed by measuring the effect of the compounds on myocardial blood flow and metabolism in fasted, closed-chest, anaesthetized beagle dogs, with cardiac catherization to enable simultaneous sampling of coronary sinus and arterial blood to be carried out. Coronary sinus blood flow is measured by the hydrogen gas clearance technique described by Aukland et al. [Circulation Res., 14, 164 (1964)]. The heart is paced electrically at 155 beats/minute and recordings of hemodynamic parameters (blood pressure, left ventricular pressure and the first derivative of the latter) are made continuously. Control measurement of coronary blood flow are made and samples of blood taken at 40 minute intervals, both in an untreated animal and in the same animal dose with an infusion of isoprenaline (60 ng./kg./min.), which both stimulates cardiac contraction and increases plasma free fatty acid levels. The compound of formula (I) or (II) is then administered intravenously and measurements are made and samples taken again, 40 minutes and 90 minutes later. The blood samples from the artery and coronary sinus are analyzed for oxyhemoglobin, pyruvate and free fatty acid (FFA) content, differences between those of the arterial and coronary sinus blood, when multiplied by coronary blood flow, being a measure of oxygen consumption, pyruvate uptake and FFA uptake by the myocardium respectively.

[3] = 0.3 mMol/kg., subcutaneous injection
[4] = 0.6 mMol/kg., subcutaneous injection
[5] = 0.3 mMol/kg., administered orally (0)
[6] = 1.2 mMol/kg., subcutaneous injection
[7] = 0.6 mMol/kg., administered orally (0)

CCOC(=O)C(=O)c1ccc(C(C)(C)C)[nH]1 [Example 2]
activation at 500 µM [1]: 50%

CC(C)(C)CCc1ccc(C(=O)C(=O)O)[nH]1 [Example 30]
activation at 500 µM [1]: 44%

CCCSc1ccc(C(=O)C(=O)O)[nH]1 [Example 40, 5-n-Propylthio-2-pyrrolylglyoxylic Acid]
PDHa/PDHt ratio [2, 3]: 0.27 | activation at 500 µM [1]: 80%

CC(C)(C)c1ccc(C(=O)C(=O)O)[nH]1 [Example 26]
activation at 500 µM [1]: 31%

O=C(O)C(=O)c1ccc(CCC2CCCC2)[nH]1 [Example 38]
PDHa/PDHt ratio [2, 3]: 0.25 | activation at 500 µM [1]: 80%

CCCCc1ccc(C(=O)C(=O)O)[nH]1 [Example 24, 2-(5-n-butyl-2-pyrrolyl)glyoxylic acid]
PDHa/PDHt ratio [2, 3]: 0.42 | activation at 500 µM [1]: 140%

CCOC(=O)C(=O)c1ccc(Cc2ccccc2)[nH]1 [Example 18]
activation at 500 µM [1]: 19%

CCOC(=O)C(=O)c1ccc(C)[nH]1 [Example 1, 5-Methyl-2-pyrrolylglyoxylic Acid Ethyl Ester]
activation at 500 µM [1]: 32%

CCc1ccc(C(N)C(=O)O)[nH]1 (racemic) [Example 60, DL-2-(5-Ethyl-2-pyrrolyl)glycine]
PDHa/PDHt ratio [2, 4]: 0.16 | activation at 500 µM [1]: 59%

O=C(O)C(=O)c1ccc(CCC2C=CCC2)[nH]1 (centres unmarked) [Example 35]
PDHa/PDHt ratio [2, 3]: 0.18 | activation at 500 µM [1]: 209%

CCCCc1ccc(C(=O)C(=O)OCC)[nH]1 [Example 6]
PDHa/PDHt ratio [2, 5]: 0.23

CC(C)(C)Cc1ccc(C(=O)C(=O)O)[nH]1 [Example 28]
activation at 500 µM [1]: 88%

CCCc1ccc(C(=O)C(=O)O)[nH]1 [Example 23]
PDHa/PDHt ratio [2, 4]: 0.66 | PDHa/PDHt ratio [2, 6]: 0.82 | activation at 500 µM [1]: 78%

NC(=O)C(N)c1ccc(CC2CC2)[nH]1 (racemic) [Example 64, DL-2-(5-Cyclopropylmethyl-2-pyrrolyl)glycinamide]
effect on myocardial blood flow or any of the hemodynamic parameters measured (heart): no significant affect | myocardial glucose uptake (heart): increased | decrease of myocardial oxygen consumption (heart; in the presence of isoprenaline): about 20% | increase of myocardial pyruvate uptake (heart; presence and absence of isoprenaline, for at least 40 minutes after dosing): at least 2 fold | PDHa/PDHt ratio [2, 4]: 0.27 | activation at 500 µM [1]: 87%

O=C(O)C(=O)c1ccc(CCC2CCCCC2)[nH]1 [Example 31]
PDHa/PDHt ratio [2, 5]: 0.20 | activation at 500 µM [1]: 125%

CCCCCc1ccc(C(=O)C(=O)O)[nH]1 [Example 27, 2-(5-n-amyl-2-pyrrolyl)glyoxylic acid]
PDHa/PDHt ratio [2, 4]: 0.13 | activation at 500 µM [1]: 157%

CCCSc1ccc(C(=O)C(=O)OCC)[nH]1 [Example 39, 5-n-Propylthio-2-pyrrolylglyoxylic Acid Ethyl Ester]
activation at 500 µM [1]: 44%

Cc1ccc(C(=O)C(=O)O)[nH]1 [Example 22]
PDHa/PDHt ratio [2, 6]: 0.84 | activation at 500 µM [1]: 51%

O=C(O)C(=O)c1ccc(Cc2ccccc2)[nH]1 [Example 32]
PDHa/PDHt ratio [2, 4]: 0.16 | PDHa/PDHt ratio [2, 6]: 0.83 | activation at 500 µM [1]: 43%

O=C(O)C(=O)c1ccc(CC2CCCCC2)[nH]1 [Example 37]
PDHa/PDHt ratio [2, 3]: 0.12 | activation at 500 µM [1]: 124%

CC(C)Cc1ccc(C(=O)C(=O)O)[nH]1 [Example 25]
PDHa/PDHt ratio [2, 4]: 0.45 | PDHa/PDHt ratio [2, 6]: 1.00 | activation at 500 µM [1]: 59%

CCOC(=O)C(=O)c1ccc(CC(C)C)[nH]1 [Example 9]
activation at 500 µM [1]: 65%

O=C(O)C(=O)c1ccc(CC2CC2)[nH]1 [Example 21, 5-Cyclopropylmethyl-2-pyrrolylglyoxylic Acid Sodium Salt]
PDHa/PDHt ratio [2, 3]: 0.44 | PDHa/PDHt ratio [2, 4]: 0.71 | activation at 500 µM [1]: 147%

O=C(O)C(=O)c1ccc(CC2CCCC2)[nH]1 [Example 36]
PDHa/PDHt ratio [2, 3]: 0.20 | activation at 500 µM [1]: 154%

CCCCCc1ccc(C(N)C(=O)O)[nH]1 (racemic) [Example 61, DL-2-(5-n-Pentyl-2-pyrrolyl)glycine]
PDHa/PDHt ratio [2, 7]: 0.13 | activation at 500 µM [1]: 84%

NC(C(=O)O)c1ccc(CC2CC2)[nH]1 (racemic) [Example 59, DL-2-(5-Cyclopropylmethyl-2-pyrrolyl)glycine]
PDHa/PDHt ratio [2, 7]: 0.21 | activation at 500 µM [1]: 29%

O=C(O)C(=O)c1ccc(CCc2ccccc2)[nH]1 [Example 33]
PDHa/PDHt ratio [2, 3]: 0.13 | activation at 500 µM [1]: 69%

CCCCCCc1ccc(C(=O)C(=O)O)[nH]1 [Example 29, 2-(5-n-hexyl-2-pyrrolyl)glyoxylic acid]
PDHa/PDHt ratio [2, 5]: 0.40 | activation at 500 µM [1]: 78%

CSc1ccc(C(=O)C(=O)O)[nH]1 [Example 34]
PDHa/PDHt ratio [2, 6]: 0.42 | activation at 500 µM [1]: 53%

CCc1ccc(C(=O)C(=O)O)[nH]1 [Example 20, 5-Ethyl-2-Pyrrolylglyoxylic Acid]
PDHa/PDHt ratio [2, 6]: 0.85 | activation at 500 µM [1]: 66%
